The values below come from US4789543A, “Neutral technetium 99-m complexes useful as radiodiagnostic agents” (E. I. Du Pont de Nemours and Company, priority 1984, dated 1988).

Assay [1] has as its system hepatobiliary transit (liver, gall bladder and gastro-intestinal tract). In words: Visualization of hepatobiliary transit by scintillation camera after intravenous injection (rabbit). Format: in vivo, male New Zealand Albino rabbit. How it is done: A lyophylized vial of HEPATOLITE™ (New England Nuclear Corporation's brand of Technetium Tc^99m Disofenin) is labelled with ^99m Tc-pertechnetate in accordance with manufacturer's directions. At least 1 mCi of the labelled preparation is injected intravenously into a 2.5 Kg male New Zealand Albino rabbit. The rabbit is positioned under a Searle Pho-Gamma scintillation camera in such a way that the liver and gastro-intestinal tract are within the field of view.
Greater than 1 mCi of the ^99m Tc-Cl(SO2)-DMPE complex from either Example 1 or 2 is injected into a rabbit as in Example 3.

Another assay relates to hepatobiliary transit. Particulars: commercially available agent, background statement; cited from earlier work.

Where only a bound is given, the exact number is not on record here.

With `CC(C)c1cccc(C(C)C)c1NC(=O)CN(CC(=O)O)CC(=O)O` (99mTc complex, metal not drawn) [Disofenin], in assay [1] (2.5 Kg male rabbit, at least 1 mCi i.v.), the “sequential images from the time of injection” value is “initial liver uptake with gradual visualization of the gall bladder and gastro-intestinal tract, analogous to the diagnostically efficacious results obtained in clinical studies of normal healthy humans”. In addition, in assay [1] (rabbit, > 1 mCi (complex) or at least 1 mCi (Disofenin) i.v., sequential images), the “time to images of the liver, gall bladder and gastro-intestinal tract (hepatobiliary transit)” value is “about 30 minutes”. In the assay on hepatobiliary transit, the “time to obtain an image of the hepatobiliary transit” value is at most 30 min.
